Patent US20170182040A1, “EPITHELIAL ION CHANNEL (ENAC) BLOCKERS TO TREAT PSORIASIS” (The Board of Trustees of the Leland Stanford Junior …, priority 2014, published 2017)

Test system: K14 Rac1 animal model for psoriasis
Test: K14 V12 Rac1 mouse model of psoriasis, IP treatment
Type: in vivo
Settings: IP 10 mg/kg every other day, 20 treatments
Experimental: FIG. 1: IP treatment with benzamil ameliorates phenotype in a mouse model of psoriasis. […] (c) IP efficacy was dose-dependent (2.1-1.4-0.7 mg/kg 20 treatments) and distinct from another ENAC blocker Amiloride (10 mg/kg).
FIG. 4: Benzamil alter Rac/STAT3 signaling, has effect on human psoriatic keratinocytes. […] Effects on Rac1 and PSTAT3 by Benzamil (10 uM) were validated in human primary psoriatic keratinocytes (Rac1-green, PSTAT3-red, DNA-blue) (b).
Mice overexpressing a K14 driven hyperactive V12 Rac1 mutant display clinical-histologic features mimicking human psoriasis including hyperkeratosis, erythema, Koebnerization, Auspitz sign, arthritis, onychodystrophy, marked psoriasiform hyperplasia, parakeratosis, Munro microabcesses, dilated rete ridge blood vessels and characteristic immune infiltrates. Rac1 mouse and human psoriasis skin show similar epidermal thickness, suprabasilar Ki67, and increased expression of IL 1, 6, 17, 23, 36/CCL 2, 5, 17, 20/TNFα/TGFα/CARD14/IFIH1/IRFs, NFKB, STAT3 activation/β defensins/Act1/IL17R. Transcriptional comparison of psoriasis susceptibility genes in Rac1 mouse and human psoriatic skin show marked overlap of both epidermal and immune pathways. […] See, for example Winge et al. Journal of Investigative Dermatology (2014) 134, S9-S27.
Benzamil attenuates Rac1-mediated psoriasis in a mouse model. In a K14 Rac1 animal model for psoriasis, Benzamil was injected ip every other day for 0, 10 and 20 injections of (2 mg/kg), or PBS.
In psoriasis keratinocytes, cytokine-mediated nuclear translocation of PSTAT3 and NFκB is reduced following Benzamil treatment.

N=C(N)NC(=O)c1nc(Cl)c(N)nc1N [Amiloride, amiloride]
Edema: reduced
Overall effect of IP treatment: Little or no effect
Psoriasiform hyperplasia (histology): retained
Rac1 activation, ki67 and TGFα expression and immune cell infiltration (CD3+/cd11c+): high
Scaling: did not have distinct effect
